The structures appear in SMILES notation. Bridge positions count the residues as written; N and C are the ends. Square brackets hold non-standard residues; d marks the D form. Peptide text beside a SMILES is read from it. * marks the point of attachment. ξ: configuration not given here. Bip = N[C@@H](Cc1ccc(-c2ccccc2)cc1)C(=O)O; Phe(3-Me) = Cc1cccc(C[C@H](N)C(=O)O)c1; Cha = N[C@@H](CC1CCCCC1)C(=O)O; ξH = NC(Cc1c[nH]cn1)C(=O)O; dDab = NCC[C@@H](N)C(=O)O; Carboxymethyl = O=C(O)C*; Orn = NCCC[C@H](N)C(=O)O; dDap = NC[C@@H](N)C(=O)O; Aun = NCCCCCCCCCCC(=O)O; Dab = NCC[C@H](N)C(=O)O; Dap = NC[C@H](N)C(=O)O; AEEA = NCCOCCOCC(=O)O

T1 sequence (Q15116 25-288): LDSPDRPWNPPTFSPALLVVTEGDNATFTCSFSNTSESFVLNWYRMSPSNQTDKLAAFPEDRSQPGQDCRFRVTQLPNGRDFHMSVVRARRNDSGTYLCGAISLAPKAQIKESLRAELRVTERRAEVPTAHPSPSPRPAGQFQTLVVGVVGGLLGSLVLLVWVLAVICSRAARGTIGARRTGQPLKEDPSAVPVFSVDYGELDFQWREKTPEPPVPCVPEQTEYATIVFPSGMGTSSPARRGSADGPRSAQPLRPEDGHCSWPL

This assay concerns the target T1, PD-1/PD-L1 interaction (PE-labeled human PD-L1-Ig binding to Jurkat cell line over-expressing human PD-1) (Homo sapiens, UniProt Q15116).
T1 construct: expressed in transfected cells; host or cells: Jurkat
Briefly: Jurkat-PD-1 Cell Binding High-Content Screening Assay (CBA). Format: cell-based. The settings on record: Jurkat cell line over-expressing human PD-1; PE-labeled PD-L1-Ig 20 nM final; read-out: Jurkat hPD1-PDL1 IC50. A digest of the protocol:
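Jurkat-hPD-1 cells, DMEM/10% FCS; cpd 2 h 37° C; PE-PD-L1-Ig 20 nM final, 1 h; 4% PFA fix + Hoechst 33342, 3× dPBS wash; high-content imaging read-out.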
A word on the IC50: it is the midpoint of a concentration-inhibition curve. `CC(C)C[C@H]1NC(=O)[C@H](CCCN)NC(=O)[C@H](C(C)C)NC(=O)[C@H](Cc2ccc(-c3ccccc3)cc2)NC(=O)[C@H](C(C)C)NC(=O)[C@H](Cc2c[nH]c3ccccc23)NC(=O)[C@H](CC(=O)O)NC(=O)[C@H](Cc2ccc(OCC(=O)O)cc2)NC(=O)[C@H](CN)NC(=O)CSC[C@@H](C(=O)NCCOCCOCC(=O)N[C@H](CN)C(=O)NCCCCCCCCCCC(=O)O)NC(=O)[C@H]([C@@H](C)O)NC(=O)[C@H](C(C)C)NC(=O)[C@H](CC2CCCCC2)NC(=O)[C@H](Cc2cnc[nH]2)NC1=O` [Compound 1128] ({CH2CO}-[Dap]Y(Carboxymethyl)DWV[Bip]V[Orn][dL]H[Cha]VTC[AEEA][dDap][Aun]-OH; thioether N-14): the 50% inhibitory concentration (IC50) is 28.7 nM.
Consider `CC(C)C[C@H]1NC(=O)[C@H](CCCN)NC(=O)[C@H](C(C)C)NC(=O)[C@H](Cc2ccc(-c3ccccc3)cc2)NC(=O)[C@H](C(C)C)NC(=O)[C@H](Cc2c[nH]c3ccccc23)NC(=O)[C@H](CC(=O)O)NC(=O)[C@H](Cc2ccc(OCC(=O)O)cc2)NC(=O)[C@H](CN)NC(=O)CSC[C@@H](C(=O)NCCOCCOCC(=O)N[C@H](CCN)C(=O)NCCCCCCCCCCC(=O)O)NC(=O)[C@H]([C@@H](C)O)NC(=O)[C@H](C(C)C)NC(=O)[C@H](CC2CCCCC2)NC(=O)[C@H](Cc2cnc[nH]2)NC1=O` [Compound 1129] ({CH2CO}-[Dap]Y(Carboxymethyl)DWV[Bip]V[Orn][dL]H[Cha]VTC[AEEA][dDab][Aun]-OH; thioether N-14), for which the IC50 came out at 37.4 nM.
With `CC(C)C[C@H]1NC(=O)[C@H](CCCN)NC(=O)[C@H](C(C)C)NC(=O)[C@H](Cc2ccc(-c3ccccc3)cc2)NC(=O)[C@H](C(C)C)NC(=O)[C@H](Cc2c[nH]c3ccccc23)NC(=O)[C@H](CC(=O)O)NC(=O)[C@H](Cc2ccc(OCC(=O)O)cc2)NC(=O)[C@H](CN)NC(=O)CSC[C@@H](C(=O)NCCOCCOCC(=O)N[C@H](CCCCN)C(=O)NCCCCCCCCCCC(=O)O)NC(=O)[C@H]([C@@H](C)O)NC(=O)[C@H](C(C)C)NC(=O)[C@H](CC2CCCCC2)NC(=O)[C@H](Cc2cnc[nH]2)NC1=O` [Compound 1131] ({CH2CO}-[Dap]Y(Carboxymethyl)DWV[Bip]V[Orn][dL]H[Cha]VTC[AEEA][dK][Aun]-OH; thioether N-14) the figure was 14.3 nM; with `CC(C)C[C@H]1NC(=O)[C@H](CCCN)NC(=O)[C@H](C(C)C)NC(=O)[C@H](Cc2ccc(-c3ccccc3)cc2)NC(=O)[C@H](C(C)C)NC(=O)[C@H](Cc2c[nH]c3ccccc23)NC(=O)[C@H](CC(=O)O)NC(=O)[C@H](Cc2ccc(OCC(=O)O)cc2)NC(=O)[C@H](CN)NC(=O)CSC[C@@H](C(=O)NCCOCCOCC(=O)N[C@H](CC(=O)O)C(=O)NCCCCCCCCCCC(=O)O)NC(=O)[C@H]([C@@H](C)O)NC(=O)[C@H](C(C)C)NC(=O)[C@H](CC2CCCCC2)NC(=O)[C@H](Cc2cnc[nH]2)NC1=O` [Compound 1132] ({CH2CO}-[Dap]Y(Carboxymethyl)DWV[Bip]V[Orn][dL]H[Cha]VTC[AEEA][dD][Aun]-OH; thioether N-14), 35.9 nM.
With `CC(C)C[C@H]1NC(=O)[C@H](CCCN)NC(=O)[C@H](C(C)C)NC(=O)[C@H](Cc2ccc(-c3ccccc3)cc2)NC(=O)[C@H](C(C)C)NC(=O)[C@H](Cc2c[nH]c3ccccc23)NC(=O)[C@H](CC(=O)O)NC(=O)[C@H](Cc2ccc(OCC(=O)O)cc2)NC(=O)[C@H](CN)NC(=O)CSC[C@@H](C(=O)NCCOCCOCC(=O)N[C@H](CCC(=O)O)C(=O)NCCCCCCCCCCC(=O)O)NC(=O)[C@H]([C@@H](C)O)NC(=O)[C@H](C(C)C)NC(=O)[C@H](CC2CCCCC2)NC(=O)[C@H](Cc2cnc[nH]2)NC1=O` [Compound 1133] ({CH2CO}-[Dap]Y(Carboxymethyl)DWV[Bip]V[Orn][dL]H[Cha]VTC[AEEA][dE][Aun]-OH; thioether N-14) the figure was 30.2 nM.
For the compound `CC(C)C[C@H]1NC(=O)[C@H](CCCN)NC(=O)[C@H](C(C)C)NC(=O)[C@H](Cc2ccc(-c3ccccc3)cc2)NC(=O)[C@H](C(C)C)NC(=O)[C@H](Cc2c[nH]c3ccccc23)NC(=O)[C@H](CC(=O)O)NC(=O)[C@H](Cc2ccc(OCC(=O)O)cc2)NC(=O)[C@H](CN)NC(=O)CSC[C@@H](C(=O)NCCOCCOCC(=O)N[C@H](CO)C(=O)NCCCCCCCCCCC(=O)O)NC(=O)[C@H]([C@@H](C)O)NC(=O)[C@H](C(C)C)NC(=O)[C@H](CC2CCCCC2)NC(=O)[C@H](Cc2cnc[nH]2)NC1=O` [Compound 1134] ({CH2CO}-[Dap]Y(Carboxymethyl)DWV[Bip]V[Orn][dL]H[Cha]VTC[AEEA][dS][Aun]-OH; thioether N-14), the IC50 came out at 28.9 nM.
Turning to `CC(C)C[C@H]1NC(=O)[C@H](CCCN)NC(=O)[C@H](C(C)C)NC(=O)[C@H](Cc2ccc(-c3ccccc3)cc2)NC(=O)[C@H](C(C)C)NC(=O)[C@H](Cc2c[nH]c3ccccc23)NC(=O)[C@H](CC(=O)O)NC(=O)[C@H](Cc2ccc(OCC(=O)O)cc2)NC(=O)[C@H](CN)NC(=O)CSC[C@@H](C(=O)NCCOCCOCC(=O)N[C@H](Cc2cnc[nH]2)C(=O)NCCCCCCCCCCC(=O)O)NC(=O)[C@H]([C@@H](C)O)NC(=O)[C@H](C(C)C)NC(=O)[C@H](CC2CCCCC2)NC(=O)[C@H](Cc2cnc[nH]2)NC1=O` [Compound 1135] ({CH2CO}-[Dap]Y(Carboxymethyl)DWV[Bip]V[Orn][dL]H[Cha]VTC[AEEA][dH][Aun]-OH; thioether N-14), the IC50 stood at 81.1 nM.
For `CC(C)C[C@H]1NC(=O)[C@H](CCCN)NC(=O)[C@H](C(C)C)NC(=O)[C@H](Cc2ccc(-c3ccccc3)cc2)NC(=O)[C@H](C(C)C)NC(=O)[C@H](Cc2c[nH]c3ccccc23)NC(=O)[C@H](CC(=O)O)NC(=O)[C@H](Cc2ccc(OCC(=O)O)cc2)NC(=O)[C@H](CN)NC(=O)CSC[C@@H](C(=O)NCCOCCOCC(=O)N[C@H](CC(N)=O)C(=O)NCCCCCCCCCCC(=O)O)NC(=O)[C@H]([C@@H](C)O)NC(=O)[C@H](C(C)C)NC(=O)[C@H](CC2CCCCC2)NC(=O)[C@H](Cc2cnc[nH]2)NC1=O` [Compound 1136] ({CH2CO}-[Dap]Y(Carboxymethyl)DWV[Bip]V[Orn][dL]H[Cha]VTC[AEEA][dN][Aun]-OH; thioether N-14), the IC50 was determined as 33.7 nM.
For `CC(C)C[C@H]1NC(=O)[C@H](CCCN)NC(=O)[C@H](C(C)C)NC(=O)[C@H](Cc2ccc(-c3ccccc3)cc2)NC(=O)[C@H](C(C)C)NC(=O)[C@H](Cc2c[nH]c3ccccc23)NC(=O)[C@H](CC(=O)O)NC(=O)[C@H](Cc2ccc(OCC(=O)O)cc2)NC(=O)[C@H](CN)NC(=O)CSC[C@@H](C(=O)NCCOCCOCC(=O)NC(Cc2cnc[nH]2)C(=O)NCCCCCCCCCCC(=O)O)NC(=O)[C@H]([C@@H](C)O)NC(=O)[C@H](C(C)C)NC(=O)[C@H](CC2CCCCC2)NC(=O)[C@H](Cc2cnc[nH]2)NC1=O` (stereo partly drawn) [Compound 1137] ({CH2CO}-[Dap]Y(Carboxymethyl)DWV[Bip]V[Orn][dL]H[Cha]VTC[AEEA][ξH][Aun]-OH; thioether N-14) the value was 18.6 nM.
With `Cc1cccc(C[C@@H]2NC(=O)[C@H](CC(=O)O)NC(=O)[C@H](Cc3ccc(OCC(=O)O)cc3)NC(=O)[C@H](Cc3ccc(OCC(=O)O)cc3)NC(=O)CSC[C@@H](C(=O)NCC(=O)N[C@@H](CCC(=O)O)C(=O)NCC(=O)NCCCCCCCCCCC(=O)O)NC(=O)[C@H](CO)NC(=O)[C@H](C(C)C)NC(=O)[C@H](CC(C)C)NC(=O)[C@H](CCN)NC(=O)[C@@H](CC(C)C)NC(=O)[C@H](CCCN)NC(=O)[C@H](C(C)C)NC(=O)[C@H](Cc3ccc(-c4ccccc4)cc3)NC(=O)[C@H](CC(C)C)NC2=O)c1` [Compound 1138] ({CH2CO}-Y(Carboxymethyl)Y(Carboxymethyl)D[Phe(3-Me)]L[Bip]V[Orn][dL][Dab]LVSCGEG[Aun]-OH; thioether N-14) the figure was 18.9 nM.
As for `Cc1cccc(C[C@@H]2NC(=O)[C@H](CC(=O)O)NC(=O)[C@H](Cc3ccc(OCC(=O)O)cc3)NC(=O)[C@H](Cc3ccc(OCC(=O)O)cc3)NC(=O)CSC[C@@H](C(=O)NCC(=O)N[C@@H](CCC(=O)O)C(=O)NCCCCCCCCCCC(=O)O)NC(=O)[C@H](CO)NC(=O)[C@H](C(C)C)NC(=O)[C@H](CC(C)C)NC(=O)[C@H](CCN)NC(=O)[C@@H](CC(C)C)NC(=O)[C@H](CCCN)NC(=O)[C@H](C(C)C)NC(=O)[C@H](Cc3ccc(-c4ccccc4)cc3)NC(=O)[C@H](CC(C)C)NC2=O)c1` [Compound 1139] ({CH2CO}-Y(Carboxymethyl)Y(Carboxymethyl)D[Phe(3-Me)]L[Bip]V[Orn][dL][Dab]LVSCGE[Aun]-OH; thioether N-14), the IC50 was 11.3 nM.
Take `Cc1cccc(C[C@@H]2NC(=O)[C@H](CC(=O)O)NC(=O)[C@H](Cc3ccc(OCC(=O)O)cc3)NC(=O)[C@H](Cc3ccc(OCC(=O)O)cc3)NC(=O)CSC[C@@H](C(=O)N[C@@H](CCCN)C(=O)NCCCCCCCCCCC(=O)O)NC(=O)[C@H](CO)NC(=O)[C@H](C(C)C)NC(=O)[C@H](CC(C)C)NC(=O)[C@H](CCN)NC(=O)[C@@H](CC(C)C)NC(=O)[C@H](CCCN)NC(=O)[C@H](C(C)C)NC(=O)[C@H](Cc3ccc(-c4ccccc4)cc3)NC(=O)[C@@H](CC(C)C)NC2=O)c1` [Compound 1141] ({CH2CO}-Y(Carboxymethyl)Y(Carboxymethyl)D[Phe(3-Me)][dL][Bip]V[Orn][dL][Dab]LVSC[Orn][Aun]-OH; thioether N-14): the IC50 was found to be 41 nM.
Regarding `Cc1cccc(C[C@@H]2NC(=O)[C@H](CC(=O)O)NC(=O)[C@H](Cc3ccc(OCC(=O)O)cc3)NC(=O)[C@H](Cc3ccc(OCC(=O)O)cc3)NC(=O)CSC[C@@H](C(=O)N[C@@H](CCCCN)C(=O)NCCCCCCCCCCC(=O)O)NC(=O)[C@H](CO)NC(=O)[C@H](C(C)C)NC(=O)[C@H](CC(C)C)NC(=O)[C@H](CCN)NC(=O)[C@@H](CC(C)C)NC(=O)[C@H](CCCN)NC(=O)[C@H](C(C)C)NC(=O)[C@H](Cc3ccc(-c4ccccc4)cc3)NC(=O)[C@@H](CC(C)C)NC2=O)c1` [Compound 1142] ({CH2CO}-Y(Carboxymethyl)Y(Carboxymethyl)D[Phe(3-Me)][dL][Bip]V[Orn][dL][Dab]LVSCK[Aun]-OH; thioether N-14), the IC50 was found to be 54.9 nM.

The record behind these values is patent US20260022142A1, “MACROCYCLIC IMMUNOMODULATORS” (Bristol-Myers Squibb Company, priority 2022, published 2026).
